In PMC8838787, “The Antiproliferative and Apoptotic Effects of a Novel Quinazoline Carrying Substituted-Sulfonamides: In Vitro and Molecular Docking Study” (Molecules, 2022):

Tests used:
A549 (lung) cancer cells = assay: MTT cell viability assay, A549; format: cell-based; details: average ± SD (n = 3)
Method: (§1) Compounds 4a–n were subjected to the cytotoxicity screening of the cell lines MCF-7 (breast), LoVo (colon), HepG2 (liver) and A549 (lung) carcinoma cells as well as HUVEC normal cell lines. The MTT assay was employed to assess cytotoxicity after 48 h of treatment with different concentrations of each compound and doxorubicin was used as a reference drug. The results were presented in Table 1 as growth inhibitory concentration (IC50 values).
(§2) Cell viability was determined using 3-(4,5-dimethylthiazol-2-yl)-2,5-diphenyl tetrazolium bromide (MTT) assay as stated previously. In brief, A549 (lung), HepG2 (liver), LoVo (colon), MCF-7 (breast) cancer cells as well as normal cells (HUVEC) were seeded in 96-well plates (10^5 per well) and compounds were added in a different final concentration. All cells were treated for 48 h, and then 10μL of MTT reagent (5 mg/mL) was added to each well and further incubated for 4 h. Thereafter, 0.1 mL of acidified isopropanol was added to solubilize formazan product and the developed color was measured at 570 nm in Microplate ELISA Reader (BioTek, Elx-800, Winooski, VT, USA). The IC50 values (concentration required for 50% inhibition of cell viability) were calculated using dose response curve. Cell viability was calculated as = (Ab Treated/Ab Control) × 100.
(§3) The A549, HepG2, LoVo and MCF-7 cancer cell lines were obtained from the German Collection of Microorganisms and Cell Cultures (DSMZ) (Braunschweig, Germany). For Human umbilical vein endothelial cells (HUVEC cells), it was purchased from American Type Culture Collection (16549; Cat no. PCS-100-010; ATTCC, Manassas, VA, USA).

HUVEC normal cells = assay: MTT cell viability assay, normal HUVEC; format: cell-based; details: Homo sapiens, 48 h, average ± SD (n = 3)
Method: as §1, §2, §3

MCF-7 cells [1] = assay: Cell cycle analysis by PI staining and flow cytometry; format: cell-based, human; details: 24 h, mean ± SD, control 57.91 ± 0.61%
Method: Indeed, designing of new chemotherapeutic drugs targeting cell cycle progression and apoptosis is considered as an attractive strategy. To explore the antiproliferative effect of compounds 4d and 4f, cell-cycle analysis was performed in MCF-7 cells were examined. The cells were treated with various concentrations of both compound for 24 h, stained with propidium iodide (PI) and analyzed by flow cytometry. As shown in (Figure 2), the incubation of MCF-7 cells with (1.25, 2.5, and 5 μM) of compound 4d for 24 h increased the percentage of cells at G1 (from 57.91 ± 0.61% in control) to 62.51 ± 0.14%, 64.95 ± 0.21% and 66.55 ± 0.78% in treated cells, respectively.
Cell cycle distribution was evaluated by PI staining as previously described. Briefly, MCF-7 cells were seeded and incubated for a period of 24 h to allow for attachment. Subsequently, cells were exposed to different concentrations of compounds 4d and 4f. After 24 h, cells were harvested and fixed in 70% ethanol. Thereafter, cells were washed with PBS, resuspended in 1 mL of PBS containing PI (50 μg/mL), RNase A (0.5 mg/mL), sodium citrate (0.1%) and Triton X-100 (0.1%), then incubated for 15 min in the dark at room temperature. Flow cytometry was carried out by a FACS Scan Flow Cytometer (Cytomics FC 500; Beckman Coulter, Brea, CA, USA). The data were analyzed using CXP software V. 3.0.

MCF-7 cells [2] = assay: Annexin V-FITC/PI apoptosis detection; format: cell-based, human; details: 24 h, mean ± SD; for early apoptotic cells: untreated 1.05 ± 0.07%; for late apoptotic cells: control 1.75 ± 0.07%
From the text: In addition to cell cycle arrest, apoptosis is another important anticancer process that inhibits cancer cell proliferation. Therefore, we further used a double labeling staining with Annexin V-FITC and PI to investigate apoptotic cell death. Phosphatidylserine exposure on the cell surface is a hallmark of early and late apoptotic cells, which can be easily identified with Annexin V-FITC [27].
Apoptotic cells were detected using Annexin V-FITC/PI staining protocol (BioLegend, San Diego, CA, USA) according to the manufacturer’s recommendations. Briefly, MCF-7 cells were incubated for 24 h with the different doses of promising compounds 4d and 4f. The cells were then harvested, washed twice with cold PBS and re-suspended with 1× Annexin V binding buffer (100 µL). Thereafter, cells were transferred into flow cytometry tube and stained with 5 μL of Annexin V- FITC and 5 μL PI for 15 min at room temperature in the dark. The cells were processed for apoptosis using a FACS Scan Flow Cytometer (Cytomics FC 500; Beckman Coulter, Brea, CA, USA) and analyzed using CXP software V. 3.0.

| IC50 (A549 (lung) cancer cells; 48 h) | IC50 (A549 (lung) cancer cells; Homo sapiens, A549, 48 h) | Compound | IC50 (HUVEC normal cells) | percentage of cells at G1 (MCF-7 cells [1]; 1.25 μM) | percentage of cells at G1 (MCF-7 cells [1]; 2.5 μM) | percentage of cells at G1 (MCF-7 cells [1]; 5 μM) | early apoptotic cells (MCF-7 cells [2]; 1.25 µM) | early apoptotic cells (MCF-7 cells [2]; 2.5 µM) | early apoptotic cells (MCF-7 cells [2]; 5 µM) | late apoptotic cells (MCF-7 cells [2]; 1.25 µM) | late apoptotic cells (MCF-7 cells [2]; 2.5 µM) | late apoptotic cells (MCF-7 cells [2]; 10 µM) |
| --- | --- | --- | --- | --- | --- | --- | --- | --- | --- | --- | --- | --- |
| 6.6 ± 0.22 µM | 5.6 µM | COc1cccc2c(=O)n(-c3ccc(S(=O)(=O)NCC(=O)Nc4ccc(C)cc4)cc3)c(SCC(=O)Nc3ccc(C)cc3)nc12 [Compound 4d] | 7.8 ± 0.6 µM | 62.51 ± 0.14% | 64.95 ± 0.21% | 66.55 ± 0.78% | 44.45 ± 1.06% | 67.55 ± 1.34% | 83.75 ± 2.19% |  |  |  |
|  | 10.1 ± 0.24 µM | CCc1cccc(NC(=O)CNS(=O)(=O)c2ccc(-n3c(SCC(=O)Nc4cccc(CC)c4)nc4c(OC)cccc4c3=O)cc2)c1 [Compound 4f, N-(3-ethylphenyl)-2-((3-(4-(N-(2-((3-ethylphenyl)amino)-2-oxoethyl)sulfamoyl)-phe-nyl)-8-methoxy-4-oxo-3,4-dihydroquinazolin-2yl)thio)acetamide] | 17.9 ± 0.6 µM | 61.65 ± 0.21% | 62.65 ± 0.35% | 65.15 ± 0.36% |  |  |  | 15.4 ± 0.28% | 31.05 ± 1.06% | 52.4 ± 0.28% |
